Target: Voltage-dependent L-type calcium channel (Cavia porcellus)
Experiment: Displacement of [3H]nitrendipine from dihydropyridine receptor of guinea pig myocardial membranes

Compared with COC(=O)C1C(C)=NC(SC)=NC1c1cccc([N+](=O)[O-])c1 (stereo unspecified) [6-Methyl-2-methylsulfanyl-4-(3-nitro-phenyl)-1,4-dihydro-pyrimidine-5-carboxylic acid methyl ester], COC(=O)C1C(C)=NC(SC)=NC1c1cc([N+](=O)[O-])ccc1SC (stereo unspecified) [6-Methyl-2-methylsulfanyl-4-(2-methylsulfanyl-5-nitro-phenyl)-1,4-dihydro-pyrimidine-5-carboxylic acid methyl ester] is 5.6-fold higher in Kd: 480 nM for the first, 2700 nM for the second.

Compared with CCCCSc1ccccc1C1N=C(SC)Nc2coc(O)c21 (stereo unspecified) [4-(2-Butylsulfanyl-phenyl)-2-methylsulfanyl-4,7-dihydro-1H-furo[3,4-d]pyrimidin-5-one], CSC1=NC(c2ccccc2SC)c2c(coc2O)N1 (stereo unspecified) [2-Methylsulfanyl-4-(2-methylsulfanyl-phenyl)-4,7-dihydro-1H-furo[3,4-d]pyrimidin-5-one] is lower in Kd: > 50000 nM for the first, 45200 nM for the second. The second binds more tightly here.

Going from CSC1=NC2c3ccccc3SCCCCCOC(=O)C2C(C)=N1 (stereo unspecified) [4-Methyl-2-methylsulfanyl-3,8,9,10,11,16b-hexahydro-7H-6-oxa-12-thia-1,3-diaza-dibenzo[a,c]cyclododecen-5-one] to CSC1=NC2C(=C(C)N1)C(=O)OCCCCCSc1ccc([N+](=O)[O-])cc12 (stereo unspecified) [4-Methyl-2-methylsulfanyl-15-nitro-3,8,9,10,11,16b-hexahydro-7H-6-oxa-12-thia-1,3-diaza-dibenzo[a,c]cyclododecen-5-one], the Kd rises from 18 nM to 873 nM (48-fold). The first binds more tightly here.

First: CSC1=NC(c2cccc([N+](=O)[O-])c2)C2=C(COC2=O)N1 (stereo unspecified) [2-Methylsulfanyl-4-(3-nitro-phenyl)-4,7-dihydro-1H-furo[3,4-d]pyrimidin-5-one]
Second: CSC1=NC(c2cc([N+](=O)[O-])ccc2SC)C2=C(COC2=O)N1 (stereo unspecified) [2-Methylsulfanyl-4-(2-methylsulfanyl-5-nitro-phenyl)-4,7-dihydro-1H-furo[3,4-d]pyrimidin-5-one]
The Kd of the first is lower: 36900 nM for the first, > 50000 nM for the second.

First: CSC1=NC(C)=C2C(=O)OCCCCCSc3c(cccc3[N+](=O)[O-])C2N1 (stereo unspecified) [4-Methyl-2-methylsulfanyl-13-nitro-3,8,9,10,11,16b-hexahydro-7H-6-oxa-12-thia-1,3-diaza-dibenzo[a,c]cyclododecen-5-one]
Second: CSC1=NC2=C(C(=O)OC2)C(c2cccc([N+](=O)[O-])c2SC)N1 (stereo unspecified) [2-Methylsulfanyl-4-(2-methylsulfanyl-3-nitro-phenyl)-4,7-dihydro-1H-furo[3,4-d]pyrimidin-5-one]
The Kd of the first is 2700-fold lower: 5 nM for the first, 13700 nM for the second. The first binds more tightly here.

In the case of COC(=O)C1C(C)=NC(SC)=NC1c1ccccc1SC (stereo unspecified) [6-Methyl-2-methylsulfanyl-4-(2-methylsulfanyl-phenyl)-1,4-dihydro-pyrimidine-5-carboxylic acid methyl ester], the Kd is reported as 1520 nM.

From BindingDB's records for doi:10.1021/jm00001a017 (Bristol-Myers Squibb Pharmaceutical Research Institute, 1995)
